Measurements: patent US8217055B2, “Pyrido-pyrazine derivatives useful as herbicidal compounds” (Syngenta Crop Protection LLC, priority 2006, dated 2012)

How the values were obtained:
Test in all cases: Example B2 herbicidal action, post-emergence, pots in glasshouse, evaluated after 13 days (10=total damage to plant; 0=no damage to plant)
Format in all cases: in vivo
Solanum nigrum = system: Solanum nigrum
Experimental: (§1) Seeds of a variety of test species were sown in standard soil in pots. After 8 days cultivation (post-emergence) under controlled conditions in a glasshouse (at 24/16° C., day/night; 14 hours light; 65% humidity), the plants were sprayed with an aqueous spray solution derived from the formulation of the technical active ingredient in acetone/water (50:50) solution containing 0.5% Tween 20 (polyoxyethelyene sorbitan monolaurate, CAS RN 9005-64-5). The test plants were then grown in a glasshouse under controlled conditions in a glasshouse (at 24/16° C., day/night; 14 hours light; 65% humidity) and watered twice daily. After 13 days, the test was evaluated (10=total damage to plant; 0=no damage to plant).

Ipomea hederaceae = system: Ipomea hederaceae
Experimental: as §1

Amaranthus retroflexus = system: Amaranthus retroflexus
Experimental: as §1

Echinochloa crus-galli = system: Echinochloa crus-galli
Experimental: as §1

Setaria faberi = system: Setaria faberi
Experimental: as §1

Row | Compound | SOLNI damage score (10=total damage to plant; 0=no damage to plant) (Solanum nigrum; rate 1000 g/ha) | IPOHE damage score (10=total damage to plant; 0=no damage to plant) (Ipomea hederaceae; rate 1000 g/ha) | AMARE damage score (10=total damage to plant; 0=no damage to plant) (Amaranthus retroflexus; rate 1000 g/ha) | ECHCG damage score (10=total damage to plant; 0=no damage to plant) (Echinochloa crus-galli; rate 1000 g/ha) | SETFA damage score (10=total damage to plant; 0=no damage to plant) (Setaria faberi; rate 1000 g/ha) | SOLNI damage score (10=total damage to plant; 0=no damage to plant) (Solanum nigrum; rate 250 g/ha) | IPOHE damage score (10=total damage to plant; 0=no damage to plant) (Ipomea hederaceae; rate 250 g/ha) | AMARE damage score (10=total damage to plant; 0=no damage to plant) (Amaranthus retroflexus; rate 250 g/ha) | ECHCG damage score (10=total damage to plant; 0=no damage to plant) (Echinochloa crus-galli; rate 250 g/ha) | SETFA damage score (10=total damage to plant; 0=no damage to plant) (Setaria faberi; rate 250 g/ha)
1 | CCc1cc(C)cc(CC)c1-c1c(OC(=O)C(C)C)c2nccnc2n(CC(F)F)c1=O [A12] | 10 | 9 | 3 | 9 | 10 |  |  |  |  | 
2 | CC(C)C(=O)Oc1c(-c2ccccc2OC(F)F)c(=O)n(CC(F)F)c2nccnc12 [A26] | 5 | 5 | 10 | 2 | 2 |  |  |  |  | 
3 | O=c1c(-c2c(Cl)cccc2C(F)(F)F)c(O)c2nccnc2n1CC(F)F [B13] | 10 | 10 | 10 | 9 | 9 |  |  |  |  | 
4 | CCc1cc(C)cc(CC)c1-c1c(O)c2nccnc2n(CC(F)F)c1=O [B4] | 10 | 10 | 7 | 8 | 9 |  |  |  |  | 
5 | Cc1cc(C)c(-c2c(O)c3nccnc3n(CC(F)F)c2=O)c(C)c1 [B5] | 10 | 10 | 7 | 8 | 8 |  |  |  |  | 
6 | CC(C)(C)C(=O)Oc1c(-c2c(Cl)cc(C(F)(F)F)cc2Cl)c(=O)n(CC(F)F)c2nccnc12 [A9] | 10 |  | 10 | 7 | 9 |  |  |  |  | 
7 | O=C1c2nccnc2N(CCF)C(=O)C1c1c(F)ccc(F)c1Cl (centres unmarked) [D2] | 7 | 5 | 6 | 1 | 2 |  |  |  |  | 
8 | CC(C)(C)C(=O)Oc1c(-c2cc(Cl)ccc2Cl)c(=O)n(CC(F)F)c2nccnc12 [A42] | 10 | 9 | 10 | 6 | 7 |  |  |  |  | 
9 | CC(C)(C)C(=O)Oc1c(-c2cc(F)c(Cl)cc2Cl)c(=O)n(CC(F)F)c2nccnc12 [A17] | 5 | 0 | 3 | 6 | 7 |  |  |  |  | 
10 | COc1ccc(Br)cc1-c1c(OC(=O)C(C)(C)C)c2nccnc2n(CC(F)F)c1=O [A38] | 9 | 6 | 10 | 6 | 8 |  |  |  |  | 
11 | CC(C)(C)C(=O)Oc1c(-c2cc(F)ccc2Cl)c(=O)n(CC(F)F)c2nccnc12 [A14] | 10 | 10 | 10 | 7 | 9 |  |  |  |  | 
12 | COc1cccc(-c2c(OC(=O)C(C)C)c3nccnc3n(CC(F)F)c2=O)c1OC [A15] | 10 | 9 | 6 | 8 | 9 |  |  |  |  | 
13 | COc1ccc(OC(F)(F)F)cc1-c1c(OC(=O)C(C)C)c2nccnc2n(CC(F)F)c1=O [A23] | 10 | 9 | 10 | 8 | 9 |  |  |  |  | 
14 | O=c1c(-c2cc(C(F)(F)F)ccc2Cl)c(O)c2nccnc2n1CC(F)F [B3] |  |  |  |  |  | 9 | 8 | 10 | 7 | 7
15 | CC(C)C(=O)Oc1c(-c2c(F)ccc(F)c2Cl)c(=O)n(CC(F)(F)F)c2nccnc12 [C10] | 10 | 10 | 10 | 3 | 6 |  |  |  |  | 
16 | COc1ccc(OC(F)(F)F)cc1-c1c(OC(=O)C(C)(C)C)c2nccnc2n(CC(F)F)c1=O [A27] | 9 | 7 | 9 | 7 | 7 |  |  |  |  | 
17 | CC(C)(C)C(=O)Oc1c(-c2c(F)ccc(Cl)c2Cl)c(=O)n(CC(F)F)c2nccnc12 [A32] | 10 | 9 | 10 | 4 | 7 |  |  |  |  | 
18 | CC(C)(C)C(=O)Oc1c(-c2cc(Cl)ccc2C(F)(F)F)c(=O)n(CC(F)F)c2nccnc12 [A37] | 5 | 7 | 6 | 5 | 7 |  |  |  |  | 
19 | COc1cc(F)c(F)cc1-c1c(OC(=O)C(C)(C)C)c2nccnc2n(CC(F)F)c1=O [A44] | 10 | 6 | 9 | 7 | 9 |  |  |  |  | 
20 | CC(C)(C)C(=O)Oc1c(-c2c(Cl)cc(OC(F)(F)F)cc2Cl)c(=O)n(CC(F)F)c2nccnc12 [A11] | 10 | 10 | 10 | 9 | 9 |  |  |  |  | 
21 | CC(C)(C)C(=O)Oc1c(-c2ccc(C(F)(F)F)cc2Br)c(=O)n(CC(F)F)c2nccnc12 [A10] | 9 | 5 | 10 | 4 | 3 |  |  |  |  | 
22 | Cc1cc(C)c(-c2c(OC(=O)C(C)(C)C)c3nccnc3n(CC(F)F)c2=O)c(C)c1 [A25] | 10 | 8 | 7 | 7 | 7 |  |  |  |  | 
23 | O=c1c(-c2c(F)ccc([N+](=O)[O-])c2Cl)c(O)c2nccnc2n1CC(F)F [B9] | 9 | 8 | 9 | 8 | 7 |  |  |  |  | 
24 | CC(C)C(=O)Oc1c(-c2cc(F)c(Cl)cc2Cl)c(=O)n(CC(F)F)c2nccnc12 [A20] | 9 | 7 | 10 | 7 | 8 |  |  |  |  | 
25 | O=c1c(-c2cc(F)ccc2Cl)c(O)c2nccnc2n1CC(F)F [B7] | 9 | 9 | 10 | 7 | 7 |  |  |  |  | 
26 | O=c1c(-c2cc(Cl)ccc2C(F)(F)F)c(O)c2nccnc2n1CC(F)F [B10] | 10 | 10 | 10 | 9 | 9 |  |  |  |  | 
27 | CC(C)(C)C(=O)Oc1c(-c2c(F)cccc2Cl)c(=O)n(CC(F)F)c2nccnc12 [A34] | 10 | 9 | 10 | 4 | 6 |  |  |  |  | 
